Experimental data from the Kinase Knowledgebase extract (Sharma et al. 2016).
pIC50: −log10 of the molar value.

These compounds were tested against CDK2 (UniProt P24941) (assay: Enzyme Assay).
`O=C(Cc1ccc(Br)cc1)Nc1n[nH]c2c1CCC2` was tested, and the pIC50 was 5.96.
Compound `O=C(Nc1n[nH]c2c1CCC2)c1ccccc1` has a pIC50 of 5.15.
In the case of `COc1cccc(CC(=O)Nc2n[nH]c3c2CCC3)c1`, the pIC50 was 5.12.
For `O=C(Nc1n[nH]c2c1CCC2)c1cccs1`, the pIC50 was 5.40.
In the case of `COc1ccc(C(=O)Nc2n[nH]c3c2CCC3)cc1`, the pIC50 was 5.22.
In the case of `COc1cccc(-c2ccc(CC(=O)Nc3n[nH]c4c3CCC4)cc2)c1`, the pIC50 was over 5.00.
Work on `COc1ccc(OC)c(CC(=O)Nc2n[nH]c3c2CCC3)c1` yielded a pIC50 of 5.28.
For `O=C(Cc1ccc(F)cc1)Nc1n[nH]c2c1CCC2`, the pIC50 was 5.52.
`COc1ccccc1-c1ccc(CC(=O)Nc2n[nH]c3c2CCC3)cc1` gave a pIC50 of over 5.00.
`O=C(Cc1ccc(-c2ccccc2F)cc1)Nc1n[nH]c2c1CCC2` showed a pIC50 of 5.15.
Work on `CC(C)(C)c1ccc(CC(=O)Nc2n[nH]c3c2CCC3)cc1` yielded a pIC50 of 6.00.
Compound `O=C(Cc1ccc(I)cc1)Nc1n[nH]c2c1CCC2` has a pIC50 of 6.10.
`COc1ccc(-c2ccc(CC(=O)Nc3n[nH]c4c3CCC4)cc2)cc1` showed a pIC50 of over 5.00.
In the case of `CC(=O)c1ccc(-c2ccc(CC(=O)Nc3n[nH]c4c3CCC4)cc2)cc1`, the pIC50 was 5.19.
In the case of `O=C(Nc1n[nH]c2c1CCC2)C1CC1`, the pIC50 was 5.40.
`CC(=O)c1cccc(-c2ccc(CC(=O)Nc3n[nH]c4c3CCC4)cc2)c1` showed a pIC50 of 5.37.
In the case of `O=C(Cc1ccc(-c2ccccc2)cc1)Nc1n[nH]c2c1CCC2`, the pIC50 was 6.00.
Work on `O=C(Nc1n[nH]c2c1CCC2)c1cccc(F)c1` yielded a pIC50 of 5.30.
With `O=C(Nc1n[nH]c2c1CCC2)c1ccc2c(c1)OCO2` the pIC50 was 5.40.
`O=C(CCc1ccccc1)Nc1n[nH]c2c1CCC2` was tested, and the pIC50 was 5.52.
Compound `O=C(Cc1ccc(-c2ccc(F)cc2)cc1)Nc1n[nH]c2c1CCC2` has a pIC50 of over 5.00.
`O=C(Cc1cccc(-c2ccccc2)c1)Nc1n[nH]c2c1CCC2` was tested, and the pIC50 was 5.10.
For `O=C(Cc1ccc(-c2cccc(F)c2)cc1)Nc1n[nH]c2c1CCC2`, the pIC50 was 5.15.
In the case of `O=C(Cc1cccc(Br)c1)Nc1n[nH]c2c1CCC2`, the pIC50 was 5.82.
`O=C(Cc1cccs1)Nc1n[nH]c2c1CCC2` showed a pIC50 of 5.40.
In the case of `COc1ccc(CC(=O)Nc2n[nH]c3c2CCC3)cc1`, the pIC50 was 6.15.
`CSc1ccc(CC(=O)Nc2n[nH]c3c2CCC3)cc1` showed a pIC50 of 5.82.
For `O=C(Cc1ccccc1)Nc1n[nH]c2c1CCC2`, the pIC50 was 5.82.
